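Five concentrations, 48 hours, 96-well plates. GI50 is the concentration that inhibits growth by half.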 Calls of active or inactive are those of the source. Rule as the data show it: active = GI50 up to about 1.1 µM and inactive = higher.
Columns and labels:
Assay in all cases: NCI-60 cell line screen, 48 h
[1] = tested on: CAKI-1
[2] = tested on: ACHN
[3] = tested on: SK-MEL-5
[4] = tested on: IGROV-1
[5] = tested on: SNB-75
[6] = tested on: UACC-62
[7] = tested on: MDA-N
[8] = tested on: A498
[9] = tested on: COLO 205
[10] = tested on: MCF7
[11] = tested on: HOP-92
[12] = tested on: HCT-15
[13] = tested on: Hs-578T
[14] = tested on: OVCAR-8
[15] = tested on: HCC 2998
[16] = tested on: 786-0
[17] = tested on: KM12
[18] = tested on: NCI-H522
[19] = tested on: MOLT-4
[20] = tested on: CCRF-CEM
[21] = tested on: SR
[22] = tested on: OVCAR-4
[23] = tested on: EKVX
[24] = tested on: HL-60
[25] = tested on: RXF 393
[26] = tested on: MDA-MB-435
[27] = tested on: NCI-H460
[28] = tested on: M14
[29] = tested on: LOX IMVI
[30] = tested on: PC-3
[31] = tested on: HT-29
[32] = tested on: NCI/ADR-RES
[33] = tested on: UACC-257
[34] = tested on: SNB-19
[35] = tested on: TK-10
[36] = tested on: OVCAR-5
[37] = tested on: SK-MEL-2
[38] = tested on: SF-268
[39] = tested on: NCI-H226
[40] = tested on: HCT-116
[41] = tested on: RPMI-8226
[42] = tested on: UO-31
[43] = tested on: A549
[44] = tested on: NCI-H23
[45] = tested on: K562
[46] = tested on: HOP-62
[47] = tested on: DU-145
[48] = tested on: U-251
[49] = tested on: MDA-MB-231
[50] = tested on: SN12C
[51] = tested on: Malme-3M
[52] = tested on: SK-MEL-28
[53] = tested on: T47D
[54] = tested on: SK-OV-3
[55] = tested on: SF-295
[56] = tested on: SW-620
[57] = tested on: SF-539
[58] = tested on: OVCAR-3

Measured: GI50

O=C1[C@@H](O)[C@@H]2CCCC[C@@]23CCCN13
> 100 µM: [12]
inactive: [1] > 100 µM | [2] > 100 µM | [3] > 100 µM | [4] > 100 µM | [5] 37.6 µM | [6] > 100 µM | [7] > 100 µM | [8] > 100 µM | [9] > 100 µM | [10] > 100 µM | [11] 36.6 µM | [13] > 100 µM | [14] > 100 µM | [15] > 100 µM | [16] > 100 µM | [17] > 100 µM | [18] > 100 µM | [19] > 100 µM | [20] > 100 µM | [21] > 100 µM | [22] > 100 µM | [23] > 100 µM | [24] > 100 µM | [25] > 100 µM | [26] > 100 µM | [27] > 100 µM | [28] > 100 µM | [29] > 100 µM | [30] > 100 µM | [31] > 100 µM | [32] > 100 µM | [33] > 100 µM | [34] > 100 µM | [35] > 100 µM | [36] > 100 µM | [37] > 100 µM | [38] > 100 µM | [39] > 100 µM | [40] > 100 µM | [41] > 100 µM | [42] > 100 µM | [43] > 100 µM | [44] > 100 µM | [45] > 100 µM | [46] > 100 µM | [47] > 100 µM | [48] > 100 µM | [49] > 100 µM | [50] > 100 µM | [51] > 100 µM | [52] > 100 µM | [53] > 100 µM | [54] > 100 µM | [55] > 100 µM

NC(=O)C(N)CC12CC3CC(CC(C3)C1)C2 (configuration not stated)
31.6 µM: [12]
inactive: [1] 27.3 µM | [2] 32.4 µM | [3] 15.2 µM | [4] > 10 µM | [5] 32.7 µM | [6] 14.5 µM | [7] 13.6 µM | [10] 20 µM | [11] 15.5 µM | [13] 19.1 µM | [14] 23.9 µM | [15] 21.6 µM | [56] 33 µM | [16] 22.3 µM | [17] 20.1 µM | [18] 15 µM | [19] 21 µM | [20] 26.7 µM | [21] 17.2 µM | [22] 17.5 µM | [23] 29.6 µM | [25] 16.3 µM | [26] 16 µM | [27] 34.4 µM | [28] 19.3 µM | [29] 16 µM | [30] 18.2 µM | [31] 28.1 µM | [32] 25.2 µM | [33] 27.9 µM | [34] 23.7 µM | [35] 29.6 µM | [36] 22.8 µM | [37] 24.6 µM | [38] 22.4 µM | [40] 17 µM | [41] 19.6 µM | [42] 21.7 µM | [43] 45.6 µM | [44] 25.4 µM | [45] 28.9 µM | [47] 12.6 µM | [48] 17.5 µM | [49] 14 µM | [50] 21 µM | [52] 20.1 µM | [54] 33.3 µM | [55] 23.3 µM

CC(CCC#N)(CCC#N)C(=O)CC(O)(C(F)(F)F)C(F)(F)F
inactive: [1] 4.09 µM | [57] 3.44 µM | [2] 4.13 µM | [3] 13.3 µM | [4] 13.2 µM | [5] 14.9 µM | [6] 6.19 µM | [7] 1.73 µM | [8] 20.6 µM | [9] 2.28 µM | [10] 6.5 µM | [11] 4.86 µM | [13] 15.3 µM | [14] 3.3 µM | [58] 2.76 µM | [15] 17 µM | [56] 2.76 µM | [16] 2.12 µM | [17] 18.1 µM | [18] 1.85 µM | [20] 1.54 µM | [21] 1.4 µM | [22] 5.02 µM | [23] 20.7 µM | [25] 2.07 µM | [26] 5.6 µM | [27] 16.6 µM | [28] 2.1 µM | [29] 2.07 µM | [30] 11.9 µM | [31] 6.65 µM | [32] 5.94 µM | [33] 6.41 µM | [34] 23.7 µM | [35] 7.71 µM | [36] 12.3 µM | [37] 33.7 µM | [38] 7.89 µM | [39] 19.8 µM | [40] 2.8 µM | [41] 2.64 µM | [42] 4.08 µM | [43] 10.1 µM | [44] 5.43 µM | [45] 1.36 µM | [46] 19.8 µM | [47] 11.4 µM | [48] 9.16 µM | [49] 4.06 µM | [50] 7.24 µM | [51] 5.02 µM | [52] 11 µM | [53] 4.22 µM | [54] 47 µM | [55] 18.2 µM
2.28 µM: [12]
active: [19] 0.547 µM | [24] 0.817 µM
